Measured values published in publication PMC6833013 (Molecules, 2019).

Legend:
A549 = experiment: cells; format: cell-based; settings: Homo sapiens, A549, 24 h, read-out: IC50 A549
HT29 = experiment: cells; format: cell-based; settings: Homo sapiens, HT-29, 24 h, read-out: IC50 HT29
RCC4-VA = experiment: cells; format: cell-based; settings: Homo sapiens, 24 h, read-out: IC50 RCC4-VA
HepG2 = experiment: cells; format: cell-based; settings: Homo sapiens, HepG2, 24 h, read-out: IC50 HepG2
Bacillus subtilis MB964 = format: cell-based
MCF-7 = experiment: cells; format: cell-based; settings: Homo sapiens, MCF7, 24 h, read-out: IC50 MCF-7
Fa2N4 = experiment: cells; format: cell-based; settings: Homo sapiens, Fa2N-4, 24 h, read-out: IC50 Fa2N4
RCC4-VHL = experiment: cells; format: cell-based; settings: Homo sapiens, 24 h, read-out: IC50 RCC4-VHL

Row | SMILES | IC50 (A549) | IC50 (HT29) | IC50 (RCC4-VA) | cytotoxic activity in all the cell lines tested (human cell lines) | IC50 (HepG2) | B. subtilis MB964 inhibition halo (Bacillus subtilis MB964) | IC50 (MCF-7) | IC50 (Fa2N4) | IC50 (RCC4-VHL)
1 | CC(=O)OC1CC2OC3C=C(C)CCC3(C)C1(C)C2(O)CO [Compound 3, (4R,12S)-12-Hydroxy-12-(hydroxymethyl)trichothec-9-en-4-yl acetate] | > 20 µg/mL | > 20 µg/mL | > 20 µg/mL | lost all their activity | > 20 µg/mL | no halo | > 20 µg/mL | > 20 µg/mL | > 20 µg/mL
2 | CCC(=O)OC1CC2OC3C=C(C)CCC3(C)C1(C)C2(O)CO [Compound 16, (4R,12S)-12-Hydroxy-12-hydroxymethyltrichothec-9-en-4-yl propionate] | > 20 µg/mL | > 20 µg/mL | > 20 µg/mL | lost all their activity | > 20 µg/mL | no halo | > 20 µg/mL | > 20 µg/mL | > 20 µg/mL
